# B1: TMEM27 full-length protein (other, mouse, UniProt Q9ESG4 15-222, looked up)
# chain: ELCHPDAENAFKVRLSIRAALGDKAYVWDTDQEYLFRAMVAFSMRKVPNREATEISHVLLCNITQRVSFWFVVTDPSNNYTLPAAEVQSAIRKNRNRINSAFFLDDHTLEFLKIPSTLAPPMEPSVPVWIIVFGVIFCIVTVAIALLVLSGIRQRRRNNKGPPGVEDAEDKCENIITIENGIPCDPLDMKGGHINDGFLTEDERLTPL
# modifications: N-glycosylated (predicted N-glycosylation sites at amino acid residues 76 and 93)
# notes: Detected in cell or islet lysates (Western blot) and in fixed, permeabilized MIN6 cells; It also differs from the immunizing peptides, so it is not used here; the transgenic construct uses murine cDNA; also called TMEM protein
# Legend:
# [1] = tested on: TMEM27; assay: Shedding of TMEM27 from MIN6 cells (immunoblot of supernatant, N-terminus; anti-V5 C-terminus as control); assay type: cell-based; settings: 2 hrs in OPTI-MEM
# Description: The pancreatic beta-cell line MIN6 was cultured with DMEM medium containing 25 mM glucose, 15% fetal bovine serum, and 5.5 μM 2-mercaptoethanol. MIN6 cells were plated at 50% confluency in 12 well plates and incubated for 24 hrs. Cells were washed with OPTI-MEM (Invitrogen) and incubated with either DMSO or protease inhibitor BB94 (1 μM) for 15 minutes in OPTI-MEM at 37° C. After the above incubation, cells were incubated with DMSO, PMA (Sigma P8139), BB94, or PMA+BB94 for 2 hrs in OPTI-MEM. 30 μl of each supernatant was collected for SDS-PAGE. Immunoblots were performed using anti-TMEM27 antibodies recognizing the N-terminus (cleaved portion) of TMEM27 (FIG. 8). […] Since BB94 is a known inhibitor of serine proteases and metalloproteases, this may indicate that TMEM27 is a substrate of a protease belonging to serine protease or metalloprotease family.
# [2] = tested on: TMEM27; assay: Inhibition of N-glycosylation of TMEM27 in MIN6 cells (SDS-PAGE, immunoblot); assay type: cell-based; settings: increasing concentrations of tunicamycin, 12 hours at 37° C.
# Description: (§1) (A) MIN6 cells were incubated with increasing amounts of tunicamycin, which inhibits glycosylation at asparagine residues. Addition of DMSO alone to the cells had no effect. (B) Supernatant from MIN6 cells was incubated with N-glycanase. […] Secreted protein was detected with anti-Col-3 antibody. (C) MIN6 cell lysates were incubated with either PBS or cross-linking reagents DTBP and BMH. […] Under reducing conditions, only the monomer was detected in PBS and DTBP-treated cell lysates. In contrast, the dimer persisted in BMH-treated samples as BMH cross-linking could not be reversed.
# MIN6 cells that express pV5-TMEM27 were incubated with indicated concentrations of tunicamycin (Sigma) dissolved in DMSO and with DMSO alone for 12 hours at 37° C. Cell lysates were then subjected to SDS-PAGE and immunoblotting with anti-V5 antibody.
# TMEM27 contains two predicted N-glycosylation sites at amino acid residues 76 and 93. MIN6 cells were treated with tunicamycin, which inhibits N-glycosylation. Cells were incubated in the presence of increasing concentrations of tunicamycin, and protein extracts were prepared and analyzed by SDS-PAGE and immunoblotting.
# [3] = target: the molecule itself; assay: chemical cross-linking (DTBP, BMH) of MIN6 cell lysates, reducing and non-reducing SDS-PAGE, immunoblot
# Description: as §1
# Chemical cross-linking experiments testing whether TMEM27 protein exists as a multimer were conducted. MIN6 cell extracts were incubated in the presence of two different cross-linking reagents; BMH (bismaleimidohexane), a membrane-permeable, non-cleavable compound and DTBP (dimethyl 3,3′-dithiobispropionimidate), a membrane permeable, cleavable compound prior to SDS-PAGE analysis that was performed under reducing and non-reducing conditions. […] However, the protein dimers disappeared under reducing conditions in the presence of DTBP (FIG. 3b). The results were similar in MIN6 cells that endogenously express TMEM27 and in N2A cells that were transiently transfected with TMEM27 expression vector (data not shown).
molecule,measurement,setting,value
"CCCCCCCCCCCCCC(=O)O[C@@H]1[C@@H](C)[C@@]2(O)[C@@H](C=C(CO)C[C@]3(O)C(=O)C(C)=C[C@@H]23)[C@@H]2C(C)(C)[C@]12OC(C)=O [PMA, phorbol 12-myristate 13-acetate]","expression levels of TMEM27 (C-terminus, anti-V5 antibody control)",[1],do not change the expression levels of TMEM27
tunicamycin,effect on TMEM27 bands (N-glycosylation),[2],Two bands with increased electrophoretic mobility appeared
B1,binding result,[3],binds
